Measured values reported in patent EP3131902B1, “COMPOUNDS AS MODULATORS OF ROR GAMMA” (Boehringer Ingelheim International GmbH, priority 2014, dated 2015).

biological target: T1, RORγ (Homo sapiens, UniProt P51449); assay: Reporter Gene Assay (RGA): nuclear receptor transactivation assay, inhibition of RORγ transactivation of a luciferase reporter in transiently transfected HEK 293 cells; assay type: cell-based; conditions: read-out: RGA IC50
T1 construct: expressed in transfected cells; host or cells: HEK 293 cells, transiently transfected
T1 sequence (P51449 269-508 limits assumed): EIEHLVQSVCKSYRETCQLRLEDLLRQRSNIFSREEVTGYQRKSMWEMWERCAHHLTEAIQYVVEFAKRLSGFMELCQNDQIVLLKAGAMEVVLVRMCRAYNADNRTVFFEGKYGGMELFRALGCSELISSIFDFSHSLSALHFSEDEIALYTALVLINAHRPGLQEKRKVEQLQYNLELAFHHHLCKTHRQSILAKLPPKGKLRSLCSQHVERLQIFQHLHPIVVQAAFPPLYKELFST

Structure (SMILES)	IC50 [nM]
CC[C@@H](C)n1c(=O)c(NCc2ncc(S(=O)(=O)CC)cn2)nc2cnc(-c3c(C4CC4)ncnc3C3CC3)nc21 [Example 186]	150
CC[C@@H](C)n1c(=O)c(NCc2ccc(S(C)(=O)=O)cc2)nc2cnc(-c3c(C)ncnc3C3CC3)nc21 [Example 189]	120
CCS(=O)(=O)c1sc(CNc2nc3cnc(-c4c(C)ncnc4C4CC4)nc3n([C@@H](C)C3CC3)c2=O)nc1C [Example 114]	107
CC[C@@H](C)n1c(=O)c(NCc2ccc(S(N)(=O)=O)cn2)nc2cnc(-c3c(C)ncnc3C3CC3)nc21 [Example 235]	425
CCS(=O)(=O)c1cnc(CNc2nc3cnc(-c4c(C)ncnc4C4CC4)nc3n([C@@H](C)C(F)(F)F)c2=O)nc1 [Example 188]	315
CNS(=O)(=O)c1ccc(CNc2nc3cnc(-c4c(OC)ncnc4C4CC4)nc3n(C(C)C)c2=O)nc1 [Example 155]	185
CCS(=O)(=O)c1ccc(CNc2nc3cnc(-c4c(C)ncnc4C(C)C)nc3n(C(C)C)c2=O)nc1 [Example 178]	240
CC[C@@H](C)n1c(=O)c(NCc2ccc(S(=O)(=O)CC)nc2)nc2cnc(-c3c(C4CC4)ncnc3C3CC3)nc21 [Example 224]	120
CC[C@H](C)n1c(=O)c(NCc2ccc(S(=O)(=O)CC)cn2)nc2cnc(-c3c(C)ncnc3C(F)(F)F)nc21 [Example 58]	420
CCC(CC)n1c(=O)c(NCc2ccc(S(=O)(=O)CC)cn2)nc2cnc(-c3c(C4CC4)ncnc3C3CC3)nc21 [Example 16]	320
CC[C@H](C)n1c(=O)c(NCc2ccc(S(=O)(=O)CC)cn2)nc2cnc(-c3c(C)ncnc3C3CC3)nc21 [Example 20]	330
CCc1nc(N)nc(C2CC2)c1-c1ncc2nc(NCc3ccc(S(=O)(=O)C4CC4)cn3)c(=O)n([C@@H](C)C3CC3)c2n1 [Example 251]	158
CCS(=O)(=O)c1ccc(CNc2nc3cnc(-c4c(C)ncnc4C4CC4)nc3n([C@H]3CCC[C@H]3C#N)c2=O)nc1 [Example 111]	460
CCS(=O)(=O)c1cnc(CNc2nc3cnc(-c4c(OC)ncnc4C4CC4)nc3n([C@@H](C)C(F)(F)F)c2=O)nc1 [Example 187]	255
CC[C@@H](C)n1c(=O)c(NCc2ccc(S(C)(=O)=O)cc2)nc2cnc(-c3c(OC)ncnc3C3CC3)nc21 [Example 190]	130
CCS(=O)(=O)N[C@H]1C[C@H](CNc2nc3cnc(-c4c(C)ncnc4C4CC4)nc3n([C@@H](C)C3CC3)c2=O)C1 [Example 202]	455
CCS(=O)(=O)c1ccc(CNc2nc3cnc(-c4c(C5CC5)ncnc4C4CC4)nc3n([C@H]3CCOC3)c2=O)cc1 [Example 174]	275
CCS(=O)(=O)c1ccc(CNc2nc3cnc(-c4c(C5CC5)ncnc4C4CC4)nc3n([C@@H](C)C(C)C)c2=O)nc1 [Example 7]	280
CCc1ncnc(C2CC2)c1-c1ncc2nc(NCc3ccc(S(C)(=N)=O)cc3)c(=O)n([C@@H](C)C3CC3)c2n1 (stereo partly shown) [Example 210]	150
Cc1ncnc(C2CC2)c1-c1ncc2nc(NCc3ccc(C(=O)O)cc3)c(=O)n([C@@H](C)C3CC3)c2n1 [Example 200]	855
Cc1ncnc(C2CC2)c1-c1ncc2nc(NCc3ccc(S(N)(=O)=O)cn3)c(=O)n(CC(C)C)c2n1 [Example 254]	455
COc1ncnc(C2CC2)c1-c1ncc2nc(NCc3ccc(S(C)(=O)=O)cn3)c(=O)n([C@@H](C)C(F)(F)F)c2n1 [Example 181]	175
